Data published in paper PMC3702004, “Comparison of Intake and Systemic Relative Effect Potencies of Dioxin-like Compounds in Female Mice after a Single Oral Dose” (Environmental Health Perspectives, 2013).

Tested on: Cyp1b1 mRNA in liver
Assay: Cyp1b1 gene expression in liver (real-time PCR)
Assay type: in vivo, female C57BL/6 mice
Conditions: for BMR20TCDD Liver Cyp1b1 mRNA: 3 days after single oral dose; for REP Liver Cyp1b1 mRNA: relative to TCDD; for Effect on hepatic Cyp1b1 mRNA expression: single oral dose, day 3
Experimental: Animals. Eight-week-old female C57BL/6 mice (Harlan laboratories, Venray, the Netherlands) were randomly assigned to treatment groups (six animals per group) and allowed to acclimate for 1.5 weeks. The animals were housed in groups in standard cages and conditions (23 ± 2°C, 50–60% relative humidity, 12-hr dark/light cycle) with free access to food and water. Mice received a single dose of test compound by oral gavage at a dosing volume of 10 mL/kg body weight (BW). Mice treated with corn oil vehicle (10 mL/kg BW) served as controls. For each congener, five different doses were administered, ranging from 0.5–100 μg/kg BW (TCDD) to 5,000–500,000 µg/kg BW (PCB-153). Detailed information on doses is provided in Supplemental Material, Table S1 (http://dx.doi.org/10.1289/ehp.1206336). On day 3 after dosing, animals were euthanized by CO2/O2 asphyxiation, and blood was immediately collected from the abdominal aorta. The liver, thymus, spleen, and adipose tissue were removed, weighed (liver, thymus, and spleen), snap frozen, and stored at –80°C. All animal treatments were performed with permission of the Animal Ethical Committee (DEC Utrecht) and performed according to the [Law on Animal Experiments (1977)]. Animals were treated humanely and with regard for alleviation of suffering.
RNA isolation and quantitative real-time polymerase chain reaction (PCR). Total RNA was isolated from liver and PBLs using a QIAGEN RNeasy kit (QIAGEN). Purity and concentration of the isolated RNA was determined by measuring the absorbance ratio at 260/280 nm and 230/260 nm with a Nanodrop 2000 spectrophotometer (Thermo Scientific, Asheville, NC, USA). RNA was reverse transcribed to complementary DNA (cDNA) using the iScript cDNA synthesis Kit (Bio-Rad, Veenendaal, the Netherlands). Quantitative real-time PCR analyses were performed using the iQ Real-Time PCR Detection System with SYBR green (Bio-Rad). Amplification reactions were set up with […] containing 12.5 μL iQ SYBR Green Supermix (Bio-rad), 0.5 μL distilled H2O, 1 μL (10 μM) forward primer, 1 μL (10 μM) reverse primer, and 10 μL first strand cDNA (10X diluted). Primer sequences were as follows: Cyp1a1: forward-5´-GGTTAACCATGACCGGGAACT-3´ and reverse-5´-TGCCCAAACCAAAGAGAGTGA-3´ ([Schulz et al. 2012]); Cyp1a2: forward-5´-ACATTCCCAAGGAGCGCTGTATCT-3´ and reverse-5´-GTCGATGGCCGAGTTGTTATTGGT-3´ ([Flaveny et al. 2010]); Cyp1b1: forward-5´-GTGGCTGCTCATCCTCTTTACC-3´ and reverse-5´-CCCACAACCTGGTCCAACTC-3´ ([Berge et al. 2004]); β-actin: forward-5´-ATGCTCCCCGGGCTGTAT-3´ and reverse-5´-CATAGGAGTCCTTCTGACCCATTC-3´ ([Schulz et al. 2012]). All primers were run through the National Center for Biotechnology Information Primer-BLAST database (http://www.ncbi.nlm.nih.gov/tools/primer-blast/) to confirm specificity and validate for optimal annealing temperature (60°C for all primers) and efficiency. The efficiency of all primer pairs was 98–102% (tested at 60°C). The following program was used for denaturation and amplification of cDNA: 3 min at 95°C, followed by 40 cycles of 15 sec at 95°C and 45 sec at 60°C. Gene expression for each sample was expressed as threshold cycle (Ct), normalized to the reference gene β-actin (ΔCt). We calculated fold induction relative to the control group.
Data analysis. We obtained concentration–response curves using a sigmoidal dose–response nonlinear regression curve fit with variable slope (GraphPad Prism 6.01; GraphPad Software Inc., San Diego, CA, USA):
In this Hill equation, y is the dependent variable (EROD activity or fold induction of mRNA levels), x the independent variable (administered or systemic dose), E0 is the estimated background response level, Emax is the maximum response, b is the estimated median effective concentration (EC50), and n is the shaping parameter of the Hill curve.
Using the congener-specific BMR20TCDD concentration, REPs were calculated relatively to TCDD: […]

[1] = dose metric Adm dose (µg/kg BW)
[2] = dose metric Syst adipose (ng/g lipid)
[3] = dose metric Syst liver (ng/g lipid)
[4] = dose metric Syst liver (ng/g liver)
[5] = dose metric Syst plasma (ng/g lipid)

SMILES	BMR20TCDD Liver Cyp1b1 mRNA (dose metric Adm dose)	BMR20TCDD Liver Cyp1b1 mRNA (dose metric Syst adipose)	BMR20TCDD Liver Cyp1b1 mRNA (dose metric Syst plasma)	REP Liver Cyp1b1 mRNA [1]	REP Liver Cyp1b1 mRNA [2]	REP Liver Cyp1b1 mRNA [3]	REP Liver Cyp1b1 mRNA [4]	REP Liver Cyp1b1 mRNA [5]	Effect on hepatic Cyp1b1 mRNA expression
Clc1cc2oc3c(Cl)c(Cl)c(Cl)cc3c2cc1Cl [Congener 4-PeCDF, 2,3,4,7,8-pentachlorodibenzofuran]	150 µg/kg BW	461 ng/g lipid	44.6 ng/g lipid	0.02	0.02	0.01	0.02	0.3	dose-dependently increased
Clc1ccc(-c2cc(Cl)c(Cl)c(Cl)c2)cc1Cl [PCB-126, 3,3´,4,4´,5-pentachlorobiphenyl]									did not induce
Clc1ccc(-c2cc(Cl)c(Cl)c(Cl)c2Cl)cc1Cl [PCB-156, 2,3,3´,4,4´,5-hexachlorobiphenyl]	95,664 µg/kg BW	745,126 ng/g lipid	553,459 ng/g lipid	0.00004	0.00001	0.0003	0.0004	0.00002	dose-dependently increased
Clc1cc2c(cc1Cl)Oc1c(cc(Cl)c(Cl)c1Cl)O2 [PeCDD, 1,2,3,7,8-pentachlorodibenzodioxin]	10.1 µg/kg BW	19.4 ng/g lipid	18.5 ng/g lipid	0.4	0.5	0.2	0.3	0.6	dose-dependently increased
Clc1cc2c(cc1Cl)Oc1cc(Cl)c(Cl)cc1O2 [TCDD, 2,3,7,8-tetrachlorodibenzodioxin, reference compound]	3.55 µg/kg BW	10.3 ng/g lipid	11.6 ng/g lipid	1	1	1	1	1	dose-dependently increased
